# Measured values published in ChEMBL document CHEMBL3272051, “Some 9-hydroxycannabinoid-like compounds. Synthesis and evaluation of analgesic and behavioral properties” (J Med Chem, 1979).
# Active and inactive are the calls of the source. No cut-off for these calls is given here.
# What was measured:
# Canis familiaris [1] = assay: Effect on overt behavior in dog assessed as prostration at 4 to 10 mg/kg, iv; type: organism-based, Canis lupus familiaris; set-up: dose 4-10 mg/kg, route intravenous; conditions: in vivo
# Canis familiaris [2] = assay: Effect on overt behavior in dog assessed as hyperreflexia at 0.05 to 10 mg/kg, iv; type: organism-based, Canis lupus familiaris; set-up: dose 0.05-10 mg/kg, route intravenous; conditions: in vivo
# Canis familiaris [3] = assay: Effect on overt behavior in dog assessed as static ataxia at 0.05 to 10 mg/kg, iv; type: ADME, organism-based, Canis lupus familiaris; set-up: dose 0.05-10 mg/kg, route intravenous; conditions: in vivo
# Canis familiaris [4] = assay: Effect on overt behavior in dog assessed as depression at 0.05 to 10 mg/kg, iv; type: organism-based, Canis lupus familiaris; set-up: dose 0.05-10 mg/kg, route intravenous; conditions: in vivo
# Mus musculus [5] = assay: Analgesic activity in sc dosed mouse by hot plate test; type: functional
# Mus musculus [6] = assay: Analgesic activity in mouse at 10 mg/kg, sc by tail-flick test; type: functional, organism-based; set-up: dose 10 mg/kg
# Mus musculus [7] = species on record: Mus musculus; assay: Analgesic activity in mouse by tail-flick test relative to morphine; type: functional
# Mus musculus [8] = species on record: Mus musculus; assay: Analgesic activity in mouse assessed as inhibition of p-phenylquinone-induced writhing relative to morphine; type: functional
# Mus musculus [9] = species on record: Mus musculus; assay: animal or person; type: functional; conditions: Tail, sc
# Mus musculus [10] = assay: Analgesic activity in mouse at 20 mg/kg, sc by hot plate test; type: functional, organism-based; set-up: dose 20 mg/kg
# Mus musculus [11] = assay: Analgesic activity in mouse at 50 mg/kg, sc by hot plate test; type: functional, organism-based; set-up: dose 50 mg/kg
Structure (SMILES),Activity (Canis familiaris [1]),Activity (Canis familiaris [2]),Activity (Canis familiaris [3]),ED50 (Mus musculus [5]),further results
CCCCCc1cc(O)c2c(c1)OC(C)(C)c1ccc(O)cc1-2,Toxic,Non-toxic,Non-toxic,35.6 mg/kg,Activity (Canis familiaris [4]): Toxic; Activity (Mus musculus [6]): inactive
CCCCCc1cc(O)c2c(c1)OC(C)(C)[C@H]1CC[C@H](O)C[C@H]21,Toxic,,,,
CCCCCc1cc(O)c2c(c1)OC(C)(C)[C@@H]1CC[C@H](O)C[C@@H]21,Toxic,,,,
CCCCCc1cc(O)c2c(c1)OC(C)(C)[C@@H]1CC[C@@H](O)C[C@@H]21,Toxic,,,1.6 mg/kg,fold change (FC) (Mus musculus [7]): 5; fold change (FC) (Mus musculus [8]): 20; ED50 (Mus musculus [9]): 1 mg/kg
CCCCCc1cc(O)c2c3c(c(=O)oc2c1)CCC(O)C3 (racemic),Toxic,Non-toxic,Non-toxic,,Activity (Canis familiaris [4]): Toxic; Activity (Mus musculus [10]): inactive
CCCCCc1cc(O)c2c(c1)OC(C)(C)C1CCC(O)CC21 (racemic),Toxic,,,2.9 mg/kg,
CCCCCc1cc(O)c2c(c1)OC(C)(C)C1=C2CC(O)CC1 (racemic),Toxic,Toxic,Toxic,,Activity (Mus musculus [11]): inactive
CCCCCc1cc(O)c2c(c1)OC(C)(C)[C@@H]1CC[C@@H](O)C=C21 (racemic),Toxic,Toxic,Toxic,,Activity (Mus musculus [11]): inactive
CCCCCc1cc(O)c2c(c1)OC(C)(C)[C@@H]1CCC(C)=C[C@@H]21 [DRONABINOL],Toxic,,,,
CN1CC[C@]23c4c5ccc(O)c4O[C@H]2[C@@H](O)C=C[C@H]3[C@H]1C5.Cl [MORPHINE HYDROCHLORIDE],,,,1.2 mg/kg,
